Assay results from patent publication US20200390100A1, “SUBSTITUTED N-HETEROCYCLYL- AND N-HETEROARYL-TETRAHYDROPYRIMIDINONES AND THE SALTS THEREOF, AND THE USE OF SAME AS HERBICIDAL ACTIVE SUBSTANCES” (Bayer Aktiengesellschaft, priority 2017, published 2020).

Key:
[1] = system: Stellaria media; test: Post-emergence herbicidal action, greenhouse, 320 g/ha; assay type: in vivo; details: application rate 320 g/ha, rated visually after about 3 weeks vs untreated controls
Method: (§1) Seeds of monocotyledonous and dicotyledonous weeds and crop plants were placed in sandy loam in plastic or wood-fiber pots, covered with soil and cultivated in a greenhouse under controlled growth conditions. 2 to 3 weeks after sowing, the test plants were treated at the one-leaf stage. The compounds of the invention, formulated in the form of wettable powders (WP) or as emulsion concentrates (EC), were then sprayed onto the green parts of the plants as aqueous suspension or emulsion with addition of 0.5% additive at a water application rate of […] (converted). After the test plants had been kept in the greenhouse under optimum growth conditions for about 3 weeks, the activity of the preparations was rated visually in comparison to untreated controls. For example, 100% activity=the plants have died, 0% activity=like control plants. Tables A1 to A14 below show the effects of selected compounds of the general formula (I) according to Tables 1.1 to 1.150 on various harmful plants and at an application rate corresponding to 320 g/ha, which were obtained by the experimental procedure mentioned above.

[2] = system: Viola tricolor; test: as above; assay type: in vivo; details: application rate 320 g/ha, rated visually after about 3 weeks vs untreated controls
Method: as §1

[3] = system: Amaranthus retroflexus; test: as above; assay type: in vivo; details: application rate 320 g/ha, rated visually after about 3 weeks vs untreated controls
Method: as §1

[4] = system: Setaria viridis; test: as above; assay type: in vivo; details: application rate 320 g/ha, rated visually after about 3 weeks vs untreated controls
Method: as §1

[5] = system: Abutilon theophrasti; test: as above; assay type: in vivo; details: application rate 320 g/ha, rated visually after about 3 weeks vs untreated controls
Method: as §1

[6] = system: Matricaria inodora; test: as above; assay type: in vivo; details: application rate 320 g/ha, rated visually after about 3 weeks vs untreated controls
Method: as §1

[7] = system: Echinochloa crus-galli; test: Herbicidal pre-emergence action (Part 2), 1280 g/ha; assay type: in vivo; details: application rate 1280 g/ha, scored visually after about 3 weeks, Table D1
Source text: Seeds of mono- and dicotyledonous weed plants were placed in plastic pots in sandy loam soil (doubly sown with in each case one species of mono- or dicotyledonous weed plants per pot) and covered with soil. The compounds of the invention, formulated in the form of wettable powders (WP) or as emulsion concentrates (EC), were then applied onto the surface of the covering soil as aqueous suspension or emulsion with addition of 0.5% additive at a water application rate of 600 liters per hectare (converted). After the treatment, the pots were placed in a greenhouse and kept under good growth conditions for the test plants. After about 3 weeks, the effect of the preparations was scored visually in comparison with untreated controls as percentages. For example, 100% activity=the plants have died, 0% activity=like control plants. Tables D1 to D8 below show the effects of selected compounds of the general formula (I) according to Tables 1.1 to 1.150 on various harmful plants and at an application rate corresponding to 1280 g/ha, which were obtained by the experimental procedure mentioned above.

[8] = target: T1, photosystem II (PS II) (Spinacia oleracea, UniProt P69560); test: Measurement of PS II activity in thylakoid membranes (DCPIP reduction); assay type: biochemical, spinach; details: PS II activity in spinach thylakoid membranes, Table E1; read-out: Effect
T1 construct: the chloroplasts were osmotically ruptured and the thylakoid membranes were then obtained by centrifugation; from tissue; host or cells: fresh spinach leaves; thylakoid membrane preparation from isolated chloroplasts
Method: Cooled fresh spinach leaves were comminuted and homogenized in 50 mM phosphate buffer, pH 6.8. 10 mM KCl, 0.34 M sucrose (sucrose buffer) (blender, 1 g of plant material/ml). The homogenate was subsequently filtered through 4 layers of Miracloth and the chloroplasts were isolated by centrifugation, i.e. 10 min of centrifugation at 4400×g (4° C.). The sediment was suspended in 25 ml of sucrose buffer and re-centrifuged for 10 min at 4400×g (4° C.). The sediment was then suspended in 40 ml of 50 mM phosphate buffer, pH 6.8, 10 mM KCl, without sucrose. In this step, the chloroplasts were osmotically ruptured and the thylakoid membranes were then obtained by centrifugation (10 min, 4400×g, 4° C.). The membrane sediment was finally suspended in about 20 ml of 50 mM phosphate buffer, pH 6.8, 10 mM KCl. Following protein determination and activity determination, the membrane suspension was divided into aliquots and frozen in liquid nitrogen. The aliquots were stored at −80° C. Under these conditions, the photosystem II preparation was storage stable for at least three months. The activity determination of photosystem II (PS II) was then carried out using the following test principle: The electron transfer from PS II to an artificial electron acceptor, 2,6-dichlorophenolindophenol (DCPIP), was measured with exposure to light. The concentration of the blue oxidized form of DCPIP was determined spectrophotometrically at wavelength λ=595 nm. […] The activity determination is carried out in microtiter plates (96 cavities) in a reaction volume of 200 μl. Here, 155 μl of dilute membrane suspension were initially charged in 50 mM of phosphate buffer, pH 6.8, 10 mM KCl. Depending on the activity of the PS II preparation, the dilution was adjusted such that the measurement of the decrease in absorption (λ=595 nm) was linear for at least 10 min. In each case 5 μl solutions of the test compounds of a concentration of 100 μM in DMSO were added to the enzyme suspension; controls contained 5 μl of DMSO; the final concentration of DMSO in the reaction batch was thus 2.5% (v/v); this concentration had no adverse effect on the enzymatic activity. On each microtiter plate, a known PS II inhibitor, for example metribuzin, was used as standard, which allowed the quality of the PS II test to be assessed. The reaction was started by addition of 40 μl DCPIP solution (600 μM in distilled water); the final concentration of DCPIP was 120 μM. Measurement of absorption is carried out over a period of 10 min at 22° C. and with exposure to light. Using metribuzin as comparative substance, the results for the efficacy of the compounds of the general formula (I) at 100 μM are stated in the table below using the following classification: ++++(inhibition≥90%), +++(90%>inhibition≥70%), ++(70%>inhibition≥50%), +(50%>inhibition≥30%).

[9] = system: Digitaria sanguinalis; test: Pre-emergence herbicidal action, greenhouse, 320 g/ha; assay type: in vivo; details: application rate 320 g/ha, Table B9
Source text: (§2) Seeds of monocotyledonous and dicotyledonous weed plants and crop plants were placed in plastic or organic planting pots and covered with soil. The compounds of the invention, formulated in the form of wettable powders (WP) or as emulsion concentrates (EC), were then applied to the surface of the covering soil as aqueous suspension or emulsion with addition of 0.5% additive at a water application rate equivalent to […]. After the treatment, the pots were placed in a greenhouse and kept under good growth conditions for the test plants. After about 3 weeks, the effect of the preparations is scored visually in comparison with untreated controls as percentages. For example, 100% activity=the plants have died, 0% activity=like control plants. Tables B1 to B14 below show the effects of selected compounds of the general formula (I) according to Tables I.1 to I.150 on various harmful plants and at an application rate corresponding to 320 g/ha, which were obtained by the experimental procedure mentioned above.

[10] = system: Stellaria media; test: as above; assay type: in vivo; details: application rate 320 g/ha, scored visually after about 3 weeks vs untreated controls
Source text: as §2

[11] = system: Alopecurus myosuroides; test: as above; assay type: in vivo; details: application rate 320 g/ha, scored visually after about 3 weeks vs untreated controls
Source text: as §2

[12] = system: Viola tricolor; test: as above; assay type: in vivo; details: application rate 320 g/ha, Table B8
Source text: as §2

[13] = system: Amaranthus retroflexus; test: as above; assay type: in vivo; details: application rate 320 g/ha, scored visually after about 3 weeks vs untreated controls
Source text: as §2

[14] = system: Veronica persica; test: as above; assay type: in vivo; details: application rate 320 g/ha, Table B13
Source text: as §2

[15] = system: Matricaria inodora; test: as above; assay type: in vivo; details: application rate 320 g/ha, scored visually after about 3 weeks vs untreated controls
Source text: as §2

[16] = system: Polygonum convolvulus; test: as above; assay type: in vivo; details: application rate 320 g/ha, scored visually after about 3 weeks vs untreated controls
Source text: as §2

[17] = system: Pharbitis purpurea; test: as above; assay type: in vivo; details: application rate 320 g/ha, Table B12
Source text: as §2

| SMILES | Stellaria media (efficacy in %) [1] | Viola tricolor (efficacy in %) [2] | Amaranthus retroflexus (efficacy in %) [3] | Setaria viridis (efficacy in %) [4] | Abutilon theophrasti (efficacy in %) [5] | Matricaria inodora (efficacy in %) [6] | Echinochloa crus-galli [7] | inhibition at 100 µM [8] | Digitaria sanguinalis (efficacy in %) [9] | Stellaria media (efficacy in %) [10] | Alopecurus myosuroides (efficacy in %) [11] | Viola tricolor (efficacy in %) [12] | Amaranthus retroflexus (efficacy in %) [13] | Veronica persica (efficacy in %) [14] | Matricaria inodora (efficacy in %) [15] | Polygonum convolvulus (efficacy in %) [16] | Pharbitis purpurea (efficacy in %) [17] |
| --- | --- | --- | --- | --- | --- | --- | --- | --- | --- | --- | --- | --- | --- | --- | --- | --- | --- |
| CC(=O)OC1CC(C)N(C)C(=O)N1c1cc(C(C)(C)C)on1 (single isomer, unassigned) [I.42-162_a] | 100% | 100% | 100% | 80% | 100% | 100% | – | – | – | – | – | – | – | – | – | – | – |
| CN1CCC(O)N(c2cc(C(C)(C)C)no2)C1=O (stereo not drawn) [I.1-290, 3-(3-tert-Butyl-1,2-oxazol-5-yl)-4-hydroxy-1-methyltetrahydropyrimidin-2(1H)-one] | – | – | – | – | – | – | 90% | > 90% | – | – | – | – | – | – | – | – | – |
| CN1CCC(O)N(c2cc(C(F)(F)F)ccn2)C1=O (stereo not drawn) [I.1-449, 4-Hydroxy-1-methyl-3-[4-(trifluoromethyl)pyridin-2-yl]tetrahydropyrimidin-2(1H)-one] | – | – | – | – | – | – | – | 50 to 70% | 100% | 100% | 100% | 100% | 100% | 80% | 80% | 100% | 100% |
